Measured values published in PubChem BioAssay (NCI).
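Cells were grown in 96-well plates and exposed to each compound for 48 hours at five concentrations; endpoints were interpolated linearly between bracketing concentrations, or set to the highest concentration if not reached. Here, GI50 denotes the concentration required for 50% inhibition of growth. Definition used: TGI = concentration required for complete inhibition of growth.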

Tests used:
Test in all cases: growth of human tumour cells (NCI), 48 h
COLO 205 colon = test system: COLO 205 colon
LXFL 529 NSCLC = test system: LXFL 529 NSCLC
MOLT-4 leukemia = test system: MOLT-4 leukemia
RPMI-8226 leukemia = test system: RPMI-8226 leukemia
SF-539 CNS = test system: SF-539 CNS
SNB-19 CNS = test system: SNB-19 CNS
TK-10 renal = test system: TK-10 renal
UO-31 renal = test system: UO-31 renal
CAKI-1 renal = test system: CAKI-1 renal

| SMILES | TGI (COLO 205 colon) [µM] | TGI (LXFL 529 NSCLC) [µM] | TGI (MOLT-4 leukemia) [µM] | TGI (RPMI-8226 leukemia) [µM] | TGI (SF-539 CNS) [µM] | TGI (SNB-19 CNS) [µM] | TGI (TK-10 renal) [µM] | TGI (UO-31 renal) [µM] | TGI (CAKI-1 renal) [µM] | GI50 (CAKI-1 renal) [µM] | GI50 (COLO 205 colon) [µM] | GI50 (MOLT-4 leukemia) [µM] | GI50 (RPMI-8226 leukemia) [µM] | GI50 (SF-539 CNS) [µM] | GI50 (SNB-19 CNS) [µM] | GI50 (TK-10 renal) [µM] | GI50 (UO-31 renal) [µM] | GI50 (LXFL 529 NSCLC) [µM] |
| --- | --- | --- | --- | --- | --- | --- | --- | --- | --- | --- | --- | --- | --- | --- | --- | --- | --- | --- |
| COc1cc2c(c3c1C=CCO3)C(=O)c1ccccc1C2=O | 39.8 | > 100 | 79.2 | > 100 | > 100 | > 100 | > 100 | > 100 | – | – | – | – | – | – | – | – | – | – |
| C=CCSC[C@H](NC(=O)COc1ccccc1)C(=O)NC(C(=O)OCc1ccc([N+](=O)[O-])cc1)=C(C)C | 39 | > 100 | 88.1 | > 100 | – | – | – | > 100 | – | – | – | – | – | – | – | – | – | – |
| C=CC1=CSNN1 | > 100 | > 100 | > 100 | > 100 | > 100 | > 100 | > 100 | > 100 | > 100 | – | – | – | – | – | – | – | – | – |
| CSC1=NC=CCN1C | > 100 | > 100 | > 100 | > 100 | – | > 100 | > 100 | > 100 | > 100 | – | – | – | – | – | – | – | – | – |
| CN(C)CC(=O)N1CCC(c2ccc(NC(=O)c3ncc(C#N)[nH]3)c(C3=CCCCC3)c2)CC1 | 14.1 | – | 12.7 | 34.6 | 15 | 25.2 | 20.6 | 15 | 16.1 | 3.52 | 4.43 | 3.72 | 8.76 | 3.5 | 11.8 | 7.86 | 3.61 | – |
| CCn1c(-c2nonc2N)nc2c(C#CCN)ncc(OCCCN)c21 | > 25 | – | > 25 | > 25 | > 25 | > 25 | > 25 | > 25 | > 25 | > 25 | > 25 | > 25 | > 25 | > 25 | > 25 | > 25 | > 25 | – |
| C1COCCN1.C1COCCN1.N.N.[Cl-].[Pt+2] | > 100 | > 100 | – | – | > 100 | > 100 | > 100 | > 100 | > 100 | 54.1 | > 100 | – | – | > 100 | > 100 | > 100 | > 100 | > 100 |
| Brc1cccc(-c2cc(-c3ccc4c(c3)OCCO4)[nH]n2)c1 | 26 | – | 101 | 236 | 8.48 | 50.5 | 40.7 | 36.6 | 29.8 | 0.953 | 1.03 | 1.09 | 1.43 | 1.8 | 3.05 | 3.3 | 4.24 | – |
| CN=C(N)N/N=C(\c1ccccc1)c1ccc(Br)cc1 | 1.04 | – | 7.3 | 3.13 | 0.537 | 13.9 | 8.47 | 6.28 | 13.2 | 0.596 | 0.279 | 0.362 | 0.441 | 0.218 | 0.6 | 0.709 | 0.519 | – |
| Cc1cc2c(cc1C)[n+](=O)c(C(=O)C/C(=N/NC(=O)c1ccccc1O)C(=O)Nc1ccccc1C(C)C)c(C)n2[O-] | > 100 | > 100 | 77.1 | – | > 100 | > 100 | > 100 | – | > 100 | – | – | – | – | – | – | – | – | – |
| CC(C)(C)OC(=O)n1cc(CNC(=S)Nc2ccccc2)c2ccccc21 | 23.4 | – | > 100 | 16.4 | 25.4 | 61.7 | 53.9 | > 100 | 23.2 | 4.68 | 11.3 | 3.88 | 3.27 | 12.3 | 15.3 | 14.6 | 26.5 | – |
| O=C(CCN1CCN(c2cnc3ccccc3n2)CC1)c1csc2ccccc12 | 59 | – | > 100 | > 100 | 77.9 | > 100 | 42.6 | 77.5 | 35.8 | 18.9 | 24.9 | 35.7 | 9.4 | 29.3 | > 100 | 19.5 | 25.1 | – |
| COc1cc(/C=C\[N+](=O)[O-])ccc1O | 5.74 | – | 7.23 | 6.11 | 5.18 | 18 | 3.41 | 3.25 | 10.9 | 2.85 | 2.36 | 2.76 | 2.2 | 2.03 | 4.92 | 1.72 | 1.48 | – |
| CCOC(=O)C1=C(C)Nc2ccccc2S1 | > 100 | > 100 | > 100 | > 100 | > 100 | > 100 | > 100 | > 100 | > 100 | – | – | – | – | – | – | – | – | – |
| C=C1CCC2C(/C=C(\C)CCC1O)OC(=O)C2C (stereo unspecified) | > 100 | – | 58.2 | > 100 | > 100 | > 100 | > 100 | > 100 | > 100 | > 100 | > 100 | 19.6 | 90.4 | > 100 | > 100 | > 100 | > 100 | – |
| Cc1ccc2c(C(C[N+](=O)[O-])c3cccs3)c(-c3ccccc3)[nH]c2c1 (stereo unspecified) | 12.6 | – | > 33.3 | 23.7 | 6.21 | 7.05 | 18.5 | 6.68 | 5.12 | 1.04 | 2.46 | 1.53 | 2.05 | 1.54 | 1.72 | 7.46 | 2.03 | – |
| CNC(=O)c1ccccc1CC1(O)c2ccccc2Oc2ccccc21 | 15.9 | – | > 100 | 91.7 | 40.8 | > 100 | 89.9 | > 100 | > 100 | 21.7 | 3.99 | 36.4 | 26.6 | 17.3 | 24.6 | 26.6 | 29.4 | – |
| O=C(/C=C/c1ccc(Cl)cc1)c1ccc(Cl)cc1Cl | 30.8 | – | 2.12 | 11 | 17.9 | 29.5 | 14 | 14.4 | 15.7 | 8.22 | 12.1 | 0.915 | 1.42 | 9.68 | 13.3 | 7.42 | 7.62 | – |
